Measurements as given in paper PMC11174926, “Composition Characterization of Cinnamomum osmophloeum Kanehira Hydrosol and Its Enhanced Effects on Erectile Function” (Plants, 2024).

How the values were obtained:
PDE5 [1] = system: PDE5; design: method as in PMID 18778098; conditions: cited from earlier work
PDE5 [2] = biological target: T1, PDE5 (Homo sapiens, UniProt O76074); test: PDE5 inhibition assay (PDE5A1 assay kit); format: biochemical
T1 construct: purchased BPS Bioscience
Protocol: The PDE5 assay was determined by using a PDE5A1 assay kit (BPS Bioscience, San Diego, CA, USA). The experiments were conducted following the manufacturer’s protocol. Sildenafil (10 nM) was used as a positive control.

Hep3B cells = test: Cytotoxicity, MTT assay; format: cell-based; conditions: 200 µM, 24 h
Protocol: Figure S19. NOESY spectrum of 2-(2-hydroxyphenyl)oxetan-3-ol (7).
Figure S20. Cytotoxicity of CO hydrosol and its compounds on Hep3B. […]
trans-PO: trans-phenyloxetan-3-ol; cis-PO: cis-phenyloxetan-3-ol; trans-CA: trans- […]
The Hep3B cells were maintained in Dulbecco’s Modified Eagle medium (DMEM; HyClone,Washington, DC, US), supplemented with 10% fetal bovine sera(FBS; Gibco,Waltham, MA, US), 1 mM sodium pyruvate (Corning), and 1% […]
penicillin/streptomycin (Corning) at 37 ℃ in a humidified atmosphere of 5% CO2. Cell viability was measured using a colorimetric MTT assay. Cells were seeded in 96-well plates at a density of 1 × 1 0 4 cells/well. Stock solutions of samples in dimethyl sulfoxide (DMSO; Sigma-Aldrich) were stored in the dark at 4 ℃. Appropriate dilutions were prepared on the day of the experiments. […]
exceed 0.25% (v/v). After 24 h incubated with samples, the culture medium was removed and replaced with fresh medium containing 0.5 mg/mL of MTT (Sigma-Aldrich) for 1 h. The supernatant was removed and added 100 µL DMSO to dissolve formazan. Absorption at 570 nm for each well was measured using an ELISA microplate reader (BioTeck Instruments, Winooski, VT, USA).

SMILES | IC50 (PDE5 [1]) [µM] | IC50 (PDE5 [2]) [µM] | inhibition at 0.1 µM (PDE5 [2]; read-out: PDE5 inhibition rate) [%] | inhibition at 0.5 µM (PDE5 [2]; read-out: PDE5 inhibition rate) [%] | inhibition at 1 µM (PDE5 [2]; read-out: PDE5 inhibition rate) [%] | inhibition at 5 µM (PDE5 [2]; 5 µM, read-out: PDE5 inhibition rate) [%] | inhibition at 10 µM (PDE5 [2]; read-out: PDE5 inhibition rate) [%] | cytotoxicity (Hep3B cells) | inhibition at 20 µM (PDE5 [2]; 20 µM, read-out: PDE5 inhibition rate) [%] | PDE5 inhibition rate (PDE5 [1]; 10 µM)
COc1ccc(-c2oc3c(CC=C(C)C)c(O[C@@H]4O[C@H](CO)[C@@H](O)[C@H](O)[C@H]4O)cc(O)c3c(=O)c2O[C@@H]2O[C@@H](C)[C@H](O)[C@@H](O)[C@H]2O)cc1 [icariin] | ~5.9 |  |  |  |  |  |  |  |  | 
O[C@H]1CO[C@H]1c1ccccc1 (relative stereo) [cis-phenyloxetan-3-ol] |  | 3.4 | 10.8 | 27.1 | 38.1 | 52.1 | 61.9 | no cytotoxicity |  | 
O[C@@H]1CO[C@H]1c1ccccc1 (relative stereo) [trans-phenyloxetan-3-ol] |  | 4.37 | 11.5 | 26.1 | 36.7 |  | 58.4 | no cytotoxicity | 65.3 | 
O=C/C=C/c1ccccc1 [trans-cinnamaldehyde] |  |  |  |  |  |  |  |  |  | less than 20%
